Entries after “also recorded” stand apart in the source; their conditions may differ.
What was measured:
Assay type in all cases: cell-based, human
[1] = system: miR-21; assay: RT-qPCR of mature miR-21 levels in MDA-MB-231 cells; settings: for mature miR-21 levels: MDA-MB-231, RT-qPCR; for reduction of mature miR-21 levels: 1 μM
Experimental: Cell Culture. Cells were cultured at 37° C. and 5% CO2. […] For compound treatment, compound stocks either in DMSO or water were diluted in growth medium and added to cells for the indicated time. […] After transfection, the medium was replaced with growth medium containing the compound of interest, prepared as described above. The RNase L-targeting siRNA or a control siRNA was transfected with Lipofectamine RNAiMAX reagent (Invitrogen) per the manufacturer's protocol.
(§1) RNA Isolation and Quantitative Real-Time PCR (RT-qPCR). After treatment, total RNA was extracted and purified by using the Zymo Quick-RNA mini prep kit per the manufacturer's protocol. Reverse Transcription (RT) for mature miRNAs as well as pri- and pre-miR-21 was completed on 200 ng of RNA by using a miScript 11 RT kit (QIAGEN) according to manufacturer's protocol. RT of mRNAs was performed by using QScript kit (Quanta Bio). An Applied Biosystems QS5 384-well PCR system was used to complete qPCR experiments using Power Sybr Green Mater Mix (Life Technologies) as described previously^6.

[2] = system: pre-miR-21; assay: Cellular Chem-CLIP and C-Chem-CLIP to study occupancy of pre-miR-21
Experimental: Cellular Chem-CLIP and C-Chem-CLIP to Study Occupancy of pre-miR-2L MDA-MB-231 cells in 100 mm dishes (~90% confluency) were treated with 4 or 5 for 6 h at 37° C. Then the cells were washed with 1×DPBS and cross-linked under 365 nm light for 10 min in ice cold 1×DPBS. The cells were harvested by scraping and pelleted by centrifugation. Total RNA was extracted by using the miRNeasy mini kit (Qiagen) per the manufacturer's protocol. Approximately 50 μg of total RNA was clicked to disulfide biotin azide as described in the “In Vitro Chem-CLIP and Competitive Chem-CLIP (C-Chem-CLIP)” section. Streptavidin beads (10 μL) were added, and the samples were incubated, with shaking, for 2 h at 37° C. The beads were then washed with 1× Wash Buffer (10 mM Tris-HCl, pH 7.0, 4 M NaCl, 1 mM EDTA) three times and then once with nanopure water. Bound RNAs were eluted from the beads by incubating with 200 μL of 1:1 TCEP (200 mM) pre-reduced with 600 mM of K2CO3 for 30 min at 37° C. The reaction was quenched by treatment with an equal volume of 400 mM of iodoacetamide for 30 min at room temperature. The supernatant was collected, and the beads were washed once with nanopure water: the water was added to the eluant. The combined eluant was cleaned up using RNAClean XP beads according to the manufacturer's protocol. The obtained RNA was then subjected to RT-qPCR. Enrichment of pre-miR-21 was calculated as previously described^6. Cellular C-Chem-CLIP was completed by pre-treating with 1 (1 or 5 μM) or 3 (1 or 5 μM) for 6 h, followed by dosing with 4 (5 μM) for 6 h. Sample preparation and data analysis were completed as described above for cellular Chem-CLIP studies.

[3] = system: pre-miR-21; assay: RT-qPCR of pre-miR-21 levels in MDA-MB-231 cells; settings: for pre-miR-21 levels: MDA-MB-231, RT-qPCR
Experimental: Cell Culture. Cells were cultured at 37° C. and 5% CO2. MDA-MB-231 cells (HTB-26, ATCC) were cultured in RMPI 1640 medium with L-glutamine & 25 mM HEPES supplemented with 1× Antibiotic/Antimycotic solution (Corning) and 10% FBS. MCF-10A cells (CRL-10317, ATCC) were cultured in 1×DMEM/F12 50/50 with L-glutamine & 15 mM HEPES (Corning) supplemented with 20% FBS, 1× Antibiotic/Antimycotic solution, 20 ng/mL human epidermal growth factor (Pepro Tech, Inc.), 10 μg/mL insulin (Sigma-Aldrich), and […] hydrocortisone (Pfaltz & Bauer). For compound treatment, compound stocks either in DMSO or water were diluted in growth medium and added to cells for the indicated time. Plasmid DNA to overexpress pre-miR-21 in pcDNA 3.1 (Addgene 21114) or a plasmid DNA encoding the pre-miR-21 mutant (custom purchased from GenScript USA, Inc.) was transfected with jetPRIME per the manufacturer's protocol. After transfection, the medium was replaced with growth medium containing the compound of interest, prepared as described above. The RNase L-targeting siRNA or a control siRNA was transfected with Lipofectamine RNAiMAX reagent (Invitrogen) per the manufacturer's protocol.
as §1

[4] = system: RTK / phosphorylation of ERK (pERK); assay: Western blot of ERK phosphorylation (functional RTK inhibition) in MDA-MB-231 cells; settings: for IC50: Homo sapiens, MDA-MB-231; for dose inhibiting ERK phosphorylation to the similar extent: Western blot quantification
Experimental: Western Blotting. MDA-MB-231 cells were plated in 6-well plates. […] The cells were harvested by trypsinization, and total protein was extracted with MPER (Mammalian Protein Extraction Reagent, Thermo Scientific) as previously described^6. Protein concentrations were determined by using a Pierce Micro BCA Protein Assay kit (Fisher Scientific). […] ImageJ software was used for quantification of the protein bands. […] In each case, the secondary antibody was diluted two times more than the primary antibody.

## C#CCCC1(CCC(=O)NCCN2CCN(c3ccc4[nH]c(-c5c(N)c6c(F)cccc6[nH]c5=O)nc4c3)CC2)N=N1 [Compound 4]
[1]
  mature miR-21 levels: decreases
[2]; MDA-MB-231
  reaction with / pull-down of pre-miR-21 in cells: reacted with pre-miR-21
[3]
  pre-miR-21 levels: increases

## CCOC(=O)C1=C(Nc2ccccc2)S/C(=C\c2ccc(OCCOCCOCCOCCNC(=O)NCCN3CCN(c4ccc5[nH]c(-c6c(N)c7c(F)cccc7[nH]c6=O)nc5c4)CC3)c(O)c2)C1=O [Compound 2, Ribotac-Dovitinib]
[1]; MDA-MB-231
  reduction of mature miR-21 levels: ~ 45±9%
  concentration giving a reduction of mature miR-21 similar to 5 μM of 1: 200 nM
  fold increase in potency / miR-21 inhibitory activity compared with 1: 25 fold
[1]
  mature miR-21 levels: reduced
[3]; MDA-MB-231
  cleavage of pre-miR-21 upon knock down of RNase L with an siRNA: reduced; also recorded: repressed cleavage
[3]
  pre-miR-21 levels: decreased; also recorded: reduced
[4]
  fold decrease of RTK inhibition relative to 1: 100 fold
  IC50: 10 µM
  dose inhibiting ERK phosphorylation to the similar extent: 5 µM
[4]; 25-fold (miR-21) × 100-fold (RTK), relative to 1
  shift of selectivity toward miR-21 over RTK: 2,500 fold
[4]; Western blot
  inhibition of ERK phosphorylation compared to 1: reduced ability to inhibit ERK phosphorylation compared to 1

## CN1CCN(c2ccc3nc(-c4c(N)c5c(F)cccc5[nH]c4=O)[nH]c3c2)CC1 [Compound 1, Dovitinib, reference compound]
[1]; MDA-MB-231
  reduction of mature miR-21 levels: not reduced
[1]; 5 μM dose, MDA-MB-231
  decrease of mature miR-21 levels: 32±4%
[1]
  mature miR-21 levels: significantly reducing mature miR-21 levels; also recorded: reduced
[2]; increasing concentrations, 4 constant
  competition of pull-down of pre-miR-21 with 4: similarly diminished
[3]
  pre-miR-21 levels: increased; also recorded: enhanced
[3]; constant concentration of 2 (1 μM), increasing competitor
  competition of cleavage of pre-miR-21 by RIBOTAC 2: competed away cleavage
[4]
  IC50: 0.1 µM
  dose inhibiting ERK phosphorylation to the similar extent: 0.05 µM
